Data on 21 molecules can be found in PubChem BioAssay AID330 (DTP/NCI, 2004).

“And” between values parts separate entries of the source, which are not always exact repeats. Identical values can stand only once. Inconclusive results and toxic doses are left out.

This test relates to P388 leukemia ip, CD2F1 mice, survival T/C. Kind of test: NCI In Vivo Anticancer Drug Screen. Data for tumor model P388 Leukemia (intraperitoneal) in CD2F1 (CDF1) mice. The settings on record: endpoint: median survival time, higher = longer survival. In short, it runs like this: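 Mice carrying the transplanted tumor received test compound or vehicle. Survival was recorded in each group, and the value is the treated-group measurement divided by that of the vehicle-treated control group.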

The mark [1] stands for this setting: dose: 100.0 mg/kg/injection, schedule: Q01DX009 (ip), vehicle: saline.
[2] abbreviates: dose: 60.0 mg/kg/injection, schedule: Q01DX005 (ip), vehicle: Klucel (hydroxypropylcellulose) (HPC).
The mark [3] stands for this setting: dose: 120.0 mg/kg/injection, schedule: Q01DX005 (ip), vehicle: Klucel (hydroxypropylcellulose) (HPC).
The mark [4] stands for this setting: dose: 240.0 mg/kg/injection, schedule: Q01DX005 (ip), vehicle: Klucel (hydroxypropylcellulose) (HPC).
Setting [5] is: dose: 50.0 mg/kg/injection, schedule: Q01DX005 (ip), vehicle: saline with Tween-80.
The mark [6] stands for this setting: dose: 100.0 mg/kg/injection, schedule: Q01DX005 (ip), vehicle: saline with Tween-80.
The mark [7] stands for this setting: dose: 200.0 mg/kg/injection, schedule: Q01DX005 (ip), vehicle: saline with Tween-80.
[8] abbreviates: dose: 25.0 mg/kg/injection, schedule: Q01DX009 (ip), vehicle: Klucel (hydroxypropylcellulose) (HPC).
[9] abbreviates: dose: 50.0 mg/kg/injection, schedule: Q01DX009 (ip), vehicle: Klucel (hydroxypropylcellulose) (HPC).
The mark [10] stands for this setting: dose: 100.0 mg/kg/injection, schedule: Q01DX009 (ip), vehicle: Klucel (hydroxypropylcellulose) (HPC).
[11] abbreviates: dose: 200.0 mg/kg/injection, schedule: Q01DX009 (ip), vehicle: Klucel (hydroxypropylcellulose) (HPC).
[12] abbreviates: dose: 100.0 mg/kg/injection, schedule: Q01DX009 (ip), vehicle: saline with Tween-80.
[13] abbreviates: dose: 200.0 mg/kg/injection, schedule: Q01DX009 (ip), vehicle: saline with Tween-80.
[14] abbreviates: dose: 50.0 mg/kg/injection, schedule: Q01DX005 (ip), vehicle: Klucel (hydroxypropylcellulose) (HPC).
Where [15] appears, read: dose: 100.0 mg/kg/injection, schedule: Q01DX005 (ip), vehicle: Klucel (hydroxypropylcellulose) (HPC).
[16] abbreviates: dose: 200.0 mg/kg/injection, schedule: Q01DX005 (ip), vehicle: Klucel (hydroxypropylcellulose) (HPC).

For `Cc1[nH]ccc(=O)c1O`, the T/C runs as follows: (dose: 16.0 mg/kg/injection, schedule: Q01DX009 (ip), vehicle: saline with Tween-80) 105 % of control; (dose: 32.0 mg/kg/injection, schedule: Q01DX009 (ip), vehicle: saline with Tween-80) 110 % of control; (dose: 50.0 mg/kg/injection, schedule: Q01DX009 (ip), vehicle: saline) 123 % of control; under setting [1], 124 % of control; (dose: 200.0 mg/kg/injection, schedule: Q01DX009 (ip), vehicle: saline) 153 % of control; (dose: 400.0 mg/kg/injection, schedule: Q01DX009 (ip), vehicle: saline) 98 % of control. Besides, where the note is “dose: 512.0 mg/kg/injection, schedule: Q01DX009 (ip), vehicle: saline with Tween-80”, the T/C was 91 % of control.

On to `CCOCNC=O`, for which the T/C was 107 % of control (dose: 125.0 mg/kg/injection, schedule: Q01DX005 (ip), vehicle: water); 100 % of control (dose: 250.0 mg/kg/injection, schedule: Q01DX005 (ip), vehicle: water); 107 % of control (dose: 500.0 mg/kg/injection, schedule: Q01DX005 (ip), vehicle: water); 112 % of control (dose: 1000.0 mg/kg/injection, schedule: Q01DX005 (ip), vehicle: water).

Take `COc1ccc(C2c3cc4c(cc3OC3(N5CCCC5)CCCC23)OCO4)c(OC)c1` (stereo unspecified): the T/C was 99 % of control under setting [2], 95 % of control under setting [3] and 96 % of control under setting [4].

For the molecule `CN(C)Nc1ncnc2c1ncn2C`, the T/C under setting [5] is 103 % of control, the T/C under setting [6] is 100 % of control and the T/C under setting [7] was 97 % of control.

In the case of `O=C(Nc1cccc(C(F)(F)F)c1)Nc1nccs1`, the T/C under setting [8] was 100 % of control, the T/C under setting [9] is 98 % of control and the T/C under setting [10] is 97 % of control.

In the case of `COc1ccc2c(oc(=O)c3c(Cl)nc(C)c(C)c32)c1OC`, the T/C (dose: 12.5 mg/kg/injection, schedule: Q01DX009 (ip), vehicle: Klucel (hydroxypropylcellulose) (HPC)) was 98 % of control; the T/C (dose: 12.5 mg/kg/injection, schedule: Q04DX003 (ip), vehicle: Klucel (hydroxypropylcellulose) (HPC)) is 100 % of control; the T/C under setting [8] was 98 % of control; the T/C (dose: 25.0 mg/kg/injection, schedule: Q04DX003 (ip), vehicle: Klucel (hydroxypropylcellulose) (HPC)) is 102 % of control; the T/C under setting [9] was 98 % of control; the T/C (dose: 50.0 mg/kg/injection, schedule: Q04DX003 (ip), vehicle: Klucel (hydroxypropylcellulose) (HPC)) is 94 % of control. The T/C under setting [10] was 97 % of control; the T/C (dose: 100.0 mg/kg/injection, schedule: Q04DX003 (ip), vehicle: Klucel (hydroxypropylcellulose) (HPC)) was 90 % of control; the T/C under setting [11] was 97 % of control; the T/C (dose: 200.0 mg/kg/injection, schedule: Q04DX003 (ip), vehicle: Klucel (hydroxypropylcellulose) (HPC)) was 90 % of control.

On to `Cc1ncc(C(N)=O)c(N)n1`, for which the T/C reads like this: (dose: 50.0 mg/kg/injection, schedule: Q01DX009 (ip), vehicle: saline with Tween-80) 103 % of control; under setting [12], 104 % of control; under setting [13], 104 % of control.

On to `Cc1ccc(NC(=O)NCCCN2CCOCC2)cc1NC(=O)NCCCN1CCOCC1`, for which the T/C under setting [9] was 104 % of control, the T/C under setting [10] is 100 % of control and the T/C under setting [11] is 96 % of control.

As for `COc1cccc(/C=N/Nc2cc(C)nc3cc4c(cc23)OCO4)c1`, the T/C (dose: 6.25 mg/kg/injection, schedule: Q01DX005 (ip), vehicle: Klucel (hydroxypropylcellulose) (HPC)) is 104 % of control; the T/C (dose: 12.5 mg/kg/injection, schedule: Q01DX005 (ip), vehicle: Klucel (hydroxypropylcellulose) (HPC)) was 97 % of control; the T/C (dose: 25.0 mg/kg/injection, schedule: Q01DX005 (ip), vehicle: Klucel (hydroxypropylcellulose) (HPC)) is 100 % of control and 87 % of control; the T/C under setting [14] is 100 % of control and 102 % of control and 96 % of control; the T/C under setting [15] is 95 % of control.

`O=c1c2ccccc2nc(-c2ccccc2Cl)n1/N=C/c1ccc(Cl)cc1Cl`: the T/C by setting is: under setting [5], 93 % of control; under setting [6], 103 % of control; under setting [7], 102 % of control.

In the case of `CCCCCC(=O)NCC(=O)NC1C(C)OC(Nc2ncnc3nc[nH]c23)C(O)C1O` (stereo unspecified), the T/C (dose: 0.5 mg/kg/injection, schedule: Q01DX009 (ip), vehicle: other) was 99 % of control; the T/C (dose: 1.0 mg/kg/injection, schedule: Q01DX009 (ip), vehicle: other) is 102 % of control; the T/C (dose: 2.0 mg/kg/injection, schedule: Q01DX009 (ip), vehicle: other) was 106 % of control; the T/C (dose: 4.0 mg/kg/injection, schedule: Q01DX009 (ip), vehicle: other) was 106 % of control; the T/C (dose: 8.0 mg/kg/injection, schedule: Q01DX009 (ip), vehicle: other) is 99 % of control.

Consider `COc1ccc(C(NC(N)=O)c2cc3c(cc2OC(C)=O)OCO3)c(OC)c1` (stereo unspecified), for which the T/C is 91 % of control (dose: 15.0 mg/kg/injection, schedule: Q01DX005 (ip), vehicle: Klucel (hydroxypropylcellulose) (HPC)); 92 % of control (dose: 30.0 mg/kg/injection, schedule: Q01DX005 (ip), vehicle: Klucel (hydroxypropylcellulose) (HPC)); 90 % of control and 91 % of control under setting [2].

With `CCCCN1C(=O)C(CC(=O)OCC)SC1=S` (stereo unspecified), the T/C runs as follows: under setting [2], 95 % of control; under setting [3], 97 % of control; under setting [4], 97 % of control.

For the molecule `Cc1cc(=O)oc2cc3oc4c(c3cc12)CCCC4`, the T/C runs as follows: under setting [14], 97 % of control; under setting [15], 92 % of control; under setting [16], 88 % of control.

For `Cc1nn(-c2ccccc2)c([O-])c1[N+]#N`, the T/C runs as follows: (dose: 100.0 mg/kg/injection, schedule: Q04DX002 (ip), vehicle: Klucel (hydroxypropylcellulose) (HPC)) 102 % of control; (dose: 200.0 mg/kg/injection, schedule: Q04DX002 (ip), vehicle: Klucel (hydroxypropylcellulose) (HPC)) 102 % of control; (dose: 400.0 mg/kg/injection, schedule: Q04DX002 (ip), vehicle: Klucel (hydroxypropylcellulose) (HPC)) 100 % of control.

Take `COc1ccc2c(c1)N(C(=O)CN1CCN(C)CC1)c1ccccc1S2`: the T/C is 99 % of control (dose: 25.0 mg/kg/injection, schedule: Q04DX002 (ip), vehicle: saline); 102 % of control (dose: 50.0 mg/kg/injection, schedule: Q04DX002 (ip), vehicle: saline); 100 % of control (dose: 100.0 mg/kg/injection, schedule: Q04DX002 (ip), vehicle: saline with Tween-80); 99 % of control (dose: 100.0 mg/kg/injection, schedule: Q04DX002 (ip), vehicle: saline).

`Cc1ccc(N)c(N)c1`: the T/C reads like this: under setting [12], 99 % of control; under setting [1], 107 % of control; under setting [13], 109 % of control; (dose: 400.0 mg/kg/injection, schedule: Q01DX009 (ip), vehicle: saline with Tween-80) 123 % of control.

With `CN(C)CC(CN(C)C)C(=O)c1ccc(O)cc1`, the T/C by setting is: (dose: 6.25 mg/kg/injection, schedule: Q01DX005 (ip), vehicle: saline) 118 % of control; (dose: 12.5 mg/kg/injection, schedule: Q01DX005 (ip), vehicle: saline) 105 % of control; (dose: 25.0 mg/kg/injection, schedule: Q01DX005 (ip), vehicle: saline) 110 % of control.

Consider `N#C/C(OC1OC(CO)C(O)C(O)C1O)=C(\C=C/C(=O)O)CC(=O)O` (stereo unspecified), for which the T/C runs as follows: (dose: 50.0 mg/kg/injection, schedule: Q01DX005 (ip), vehicle: saline) 105 % of control; (dose: 100.0 mg/kg/injection, schedule: Q01DX005 (ip), vehicle: saline) 106 % of control; (dose: 200.0 mg/kg/injection, schedule: Q01DX005 (ip), vehicle: saline) 105 % of control.

`CCOC(=O)c1ccc(OCC#N)cc1`: the T/C was 93 % of control under setting [14], 102 % of control under setting [15] and 98 % of control under setting [16].

On to `NCCCCC(C(=O)NC(CO)C(=O)O)N(C(=O)OCc1ccccc1)C(=O)OCc1ccccc1` (stereo unspecified), for which the T/C runs as follows: under setting [5], 101 % of control; under setting [6], 101 % of control; under setting [7], 90 % of control.
